US11198897B2, “Rapid antibiotic susceptibility testing by tracking sub-micron scale motion of single bacterial cells” (Arizona Board of Regents on behalf of Arizona State …, priority 2017, dated 2021)

Tests used:
UPEC CFT073 = test: Broth microdilution assay (MIC, MBC) in Mueller Hinton broth; assay type: cell-based, uropathogenic E. coli
Protocol: (§1) Broth microdilution assay was used to determine the polymyxin B MIC and MBC following a standard protocol.^54 Exponential phase UPEC CFT073 cultures were grown as described above, and bacterial suspensions (1×10^8 cfu/ml) were prepared in Mueller Hinton broth. Bacterial suspensions (100 μl of 5×10^6, 10^7, or 10^8 cfu/ml) were added to wells of 96-well microtiter plates containing polymyxin B (0.125-8 μg/ml). The MIC was determined by measuring the absorbance at 600 nm after 16 h standing incubation at 37° C. Cell viability and MBC values were determined by plating duplicate 10-fold serial dilutions for each sample onto Luria Broth agar plates and enumerating colonies after 16 h incubation at 37° C.
Referring now to FIG. 15, a plot measuring inhibition of UPEC in Mueller Hinton broth (MHB) after incubation with increasing polymyxin B concentrations is shown. Growth inhibition of UPEC in Mueller Hinton broth (MHB) after incubation with increasing polymyxin B concentrations. UPEC cells (5×10^6/ml) were incubated in MHB for 16 h at 37° C., followed by optical density measurements (OD600). Average and standard deviation OD600 measurements collected from triplicate experiments were plotted.
Referring now to FIG. 16, a table illustrating growth inhibition and bactericidal activity of the antibiotic polymyxin B is shown. After determining growth inhibition after […]

[1] = tested on: UPEC cells in human urine; test: Rapid AST by motion tracking (DAVG) of UPEC cells in human urine samples; assay type: cell-based, uropathogenic E. coli
Protocol: Referring now to FIG. 5A-5F, plots of DAVG of UPEC cells in human urine exposed to increasing concentrations of polymyxin B are there illustrated. UPEC cells (5×10^6 cfu/ml) were added to human urine samples, and DAVG was determined over time in the absence and presence of clinically-relevant concentrations of polymyxin B. The bars with vertical striping represent the baseline DAVG measurement of UPEC cells in urine. DAVG measurement of UPEC cells upon exposure to clinically-relevant concentrations of polymyxin B (bars with horizontal striping; antibiotics added immediately after the baseline measurement) and a high, bactericidal concentration of polymyxin B (bars with diagonal striping, 0.5 mg/ml added after the 90-min measurement). DAVG of cells in wells with (a) 0, (b) 0.25, (c) 1, (d) 2, (e) 4, and (f) 8 μg/ml of polymyxin B. *, p<0.05; ns, not significant.
To test the feasibility of an example of a method for analyzing clinically relevant samples, urine samples collected from healthy patients were spiked with UPEC bacterial cells. Following surface tethering, images were recorded from six different wells with polymyxin B doses varying from 0 to 8 μg/ml.
By repeating these experiments with increasing concentrations of UPEC cells in urine samples, the polymyxin B MBC90 min was determined to be between 4 and 8 μg/ml (Table 1). These MBC data corroborated the previous experiments with 5×10^6 cfu/ml and standard culturing methods which proceeded for 16 h (see also FIG. 17A-FIG. 17F).
An aliquot of frozen E. coliO157:H7 or E. coli CFT073 strain was thawed and used to inoculate 3 ml of Luria broth (LB) one day before the experiments. The overnight, saturated culture grown at 37° C. was diluted into fresh LB at a concentration of ˜10^7 cfu/ml and grown at 37° C. with gentle rotary mixing until the cultures reached an OD600 of 0.56, indicating the mid-logarithmic phase of growth. The corresponding concentration of the bacteria was 4.67×10^8 cfu/ml. Bacterial cells were collected by centrifugation at 2000×g for 15 min and resuspended in 1 ml PBS (1×) to an OD of 0.56. […]

E. coli O157:H7 = test: Sub-μm motion tracking of antibody-tethered E. coli O157:H7 cells exposed to antibiotic; assay type: cell-based, Escherichia coli; conditions: for Distance (root-mean-square displacement of cell center over 20 sec) of a single cell: 0.5 mg/ml polymyxin B
Source text: Referring now to FIG. 2A an image of an E. coli O157:H7 bacterial cell with superimposed motion of the cell center over 20 sec shown as darkened dots is shown. E. coli O157:H7 cells 202 tethered to the glass slide were imaged. […] Scale Bar 203 is 1 μm. 43 The center of each bacterial cell was identified in each image frame (described in more detail below with reference to FIG. 6A-FIG. 6D) and plotted as data points 204 in FIG. 2A′.
As there shown, plot 202 plots motion data 204 in nm in X and Y coordinates ranging from −400 nm to 400 nm. The center positions of the bacterial cell (center) at different moments are shown and reveal the sub-μm scale motion of the cell. For quantitative analysis of the sub-μm motion of the bacterial cell, “Distance” is defined as the root-mean-square of the position over 20 seconds. Note that the motion ranges from about −200 nm to 200 nm displacement along both coordinates.
Referring now to FIG. 3A, images of a bacterial cell and displacement of the cell center in 1×PBS before (0 min) and after polymyxin B addition (2 and 5 min) are shown. Images 301, 302, 303 of a bacterial cell and displacement of the cell center 310 in 1×PBS before (0 min) and after polymyxin B addition (2 and 5 min). Antibiotic effects on the sub-μm motion were examined using a lethal dose of polymyxin B (0.5 mg/ml). Images 301, 302, 303 show the bright-field images of an alive bacterial cell before, 2 min, and 5 min, respectively after exposure to 0.5 mg/ml polymyxin B, where the positions of the bacterial cell before and after the exposure to polymyxin B, represented by indicia 310, 310A and 310B respectively. Scale bar 311 is set at 1 μm. #, p=0.065.
The average E. coli O157:H7 distance over 20 sec. in 1×PBS was 278 nm as indicated by bar 350, which reduced to 225 nm within 2 min after addition of 0.5 mg/ml polymyxin B, indicated by bar 352 and further to 65 nm at 5 min post-antibiotic exposure as plotted in plot 324 and represented by bar 354.
A robust AST method must work for a bacterial population that contains a mixture of loosely and tightly bound cells. […] For this mixed population of bound cells, the DAVG was 265 nm (FIG. 3C) before the addition of polymyxin B and dropped to 123 nm at 10 min post-antibiotic exposure (FIG. 3D).
Clean BK7 glass coverslips were coated with 1.5 nm chromium and 48 nm gold and used as sensing chips. The chips were rinsed with deionized water and ethanol multiple times followed by drying with nitrogen gas and cleaning with a hydrogen flame. For antibody surface, the cleaned chips were submerged in 1 mM PEG/PEG-COOH ethanol solution and left in the dark for 24 h to coat a PEG/PEG-COOH self-assembled monolayer (SAM) on each chip. The PEG/PEG-COOH SAM-coated chips were activated with 500 μl of a freshly prepared mixture of 0.1 M NHS and 0.4M EDC in 1:1 ratio to produce NHS ester receptors, which react with the primary amine groups on the antibodies via an amide bond. Chips with activated PEG/PEG-COOH SAM were cleaned with deionized water and blown dry with nitrogen gas. […]
(§2) To quantify bacterial motion, region props MATLAB command was used to obtain the “Centroid” 603 for each segmented cell in the binary images. The centroid is the X and Y coordinates of the bacterial cell center and is calculated as the mean of all non-zero pixels which the bacterial cell occupies. […]

UPEC cells = test: Rapid AST by motion tracking (DAVG) of APTES-tethered UPEC cells in 1×PBS; assay type: cell-based, uropathogenic E. coli
Protocol: To apply the above motion-tracking method to AST of the clinically relevant UPEC strain, UPEC cells were tethered to the glass surface via APTES surface chemistry and conjugation to the amine group of a bacterial surface protein. Antibiotic dose-dependent experiments were performed in a multiplexed format using multi-well slides and a 40× objective. First, baseline images were captured at 0 min for each well. Subsequently, polymyxin B at clinically relevant concentrations (4, 2, 0.5, and 0.25 μg/ml) was added to different wells, and images were recorded at 15 min intervals for 75 min. Finally, as a positive control, a bactericidal dose (0.5 mg/ml) of polymyxin B was added to all wells, and images were recorded after incubation for 15 min (at 90 min). The control well (Well 1) initially harbored 100 tethered cells (as described below with reference to FIG. 8A) with an initial DAVG of 228 nm (FIG. 4A). Over time (0-75 min), the number of cells on the surface increased gradually (as described below with reference to FIG. 8A) due to replication of the surface-tethered cells (as described below with respect to FIG. 9A-10B). During the first 15 min, DAVG increased from 228 nm to 388 nm, followed by a gradual decrease from 388 to 227 nm over 75 min (FIG. 4A). […] DAVG vs. time was analyzed for polymyxin B varying between 0.5-4 μg/ml (FIG. 4B-FIG. 4E), showing clear correlation between the sub-μm motion and antibiotic concentration. […]
All E. coli O157:H7 experiment image sequences were collected at 106 fps at a pixel resolution of 640×480 using the Pike-032B CCD camera. […] The stage was translated to each well sequentially at the marker spot area and recorded 5 sec image sequences for each well. […]
as §2

[2] = tested on: UPEC cells spiked in human urine; test: Culture AST: bactericidal activity against UPEC in spiked urine samples by plating on Luria agar; assay type: cell-based, uropathogenic E. coli
Protocol: as §1
Referring now to FIG. 17A-FIG. 17F plots of bactericidal activity of polymyxin B against UPEC in spiked urine samples are shown. UPEC cells were added to human urine samples and exposed to different polymyxin B concentrations. At indicated times, 5 μl of each suspension was inoculated onto Luria agar. After incubation at 37° C. for 16 h, colonies were enumerated and recorded as cfu/ml. The bars with vertical striping represent the initial cfu/ml of UPEC cells in urine, and bars with horizontal striping represent cfu/ml of UPEC cells upon exposure to clinically-relevant concentrations of polymyxin B (antibiotics added immediately after the baseline measurement) in urine.

[3] = after addition of 0.5 mg/ml polymyxin B

polymyxin B
Standard incubation (16 h) MBC (UPEC CFT073; quantitative plating after 16 h incubation): 2 µg/mL
Minimum inhibitory concentration (MIC) (UPEC CFT073; standard microdilution broth assay, 16 h incubation): 1 µg/mL
DAVG change in urine ([1]; 4 and 8 μg/ml polymyxin B, p<0.05, to values similar to lethal 0.5 mg/ml dose): decreased significantly
DAVG change over time in urine ([1]; 90 min incubation with 0.25, 1, or 2 μg/ml polymyxin B): either remained unchanged or increased
Rapid AST MBC 90 min ([1]; UPEC concentration in urine 10^8 cfu/ml): 4 µg/mL
Distance (root-mean-square displacement of cell center over 20 sec) of a single cell (E. coli O157:H7; 2 min after addition, 278 nm in 1×PBS before): 225 nm
Distance (root-mean-square displacement of cell center over 20 sec) of a single cell (E. coli O157:H7; 5 min post-antibiotic exposure, 278 nm before): 65 nm
Viable cells on overnight culturing after exposure (E. coli O157:H7; 5 min exposure to lethal dose 0.5 mg/ml): no viable cells
DAVG change of completely tethered bacterial cells (E. coli O157:H7; [3]): no change
DAVG change of loosely tethered bacterial cells (E. coli O157:H7; [3]): significant decrease
DAVG after lethal polymyxin B concentration (UPEC cells; control well, 0.5 mg/ml added after 75-min measurement, 227 nm before, p<0.05): 64 nm
Number of cells on the surface over 75 min (UPEC cells; polymyxin B 0.5-4 μg/ml, indicating growth inhibition): remained constant
Minimum bactericidal concentration at 75 min (MBC75 min) (UPEC cells; rapid AST, 75 min, 1×PBS): 4 µg/mL
Colonies on Luria agar after bactericidal concentration ([2]; 0.5 mg/ml added after the 90-min measurement, additional 15-min incubation): no colonies were detected
MBC against UPEC cells spiked in human urine ([2]; plating on Luria agar, 16 h at 37° C.): 2 µg/mL
